Results from article PMC4264192, “Synthesis and Biological Evaluation of 2-Thioxopyrimidin-4(1H)-one Derivatives as Potential Non-Nucleoside HIV-1 Reverse Transcriptase Inhibitors” (International Journal of Molecular Sciences, 2014).
Where two headings read alike, the source gives them in different places.

Legend:
HIV-1 = assay: Inhibition of HIV-1 replication in MT-4 cells (HIV-1 antigen ELISA or MTT); assay type: cell-based, human immunodeficiency virus type 1; conditions: for activity against HIV-1 replication (in words) / Selectivity index (SI), CC50/IC50: MT-4 cells; for activity against HIV-1 replication (in words): less than 30% reduction of HIV expression considered without biological activity; for IC50: Human immunodeficiency virus 1, MT4, 144 h, read-out: IC50, 50% inhibitory concentration (anti-HIV-1 activity); for Selectivity index (SI), CC50/IC50: ratio CC50/IC50; for EC50: Human immunodeficiency virus 1, MT4, read-out: EC50 against wild-type HIV-1
From the text: Compounds mediating less than 30% reduction of HIV expression were considered without biological activity.

[1] = Cytotoxic effect in uninfected MT-4 cultures; assay type: cell-based; conditions: human, uninfected MT-4 cells; read-out: CC50, 50% cytotoxic concentration
[2] = HIV-1 in MT-4 cells, six days, 0.005 MOI

Row | SMILES | melting point [°C] | IC50 (HIV-1; [2]) [µM] | Selectivity index (SI), CC50/IC50 (HIV-1) | CC50 at 6 days [1] [µM] | further results
1 | C=CCc1c(Cc2ccccc2)nc(SCCCBr)[nH]c1=O [Compound 2c, 2-(3-Bromopropylthio)-5-allyl-6-benzylpyrimidin-4(3H)-one] | 138 to 140 | – | – | – | activity against HIV-1 replication (in words) (HIV-1): inactive
2 | C=CCc1c(Cc2ccccc2)nc(SCOCC)[nH]c1=O [Compound 11b, 5-Allyl-6-benzyl-2-(ethoxymethylthio)pyrimidin-4(3H)-one] | 142 to 144 | – | – | – | –
3 | C=CCc1c(Cc2ccccc2)nc(SCC(=O)OCC)[nH]c1=O [Compound 3b, 5-Allyl-6-benzyl-2-(ethylacetatethio)pyrimidin-4(3H)-one] | 118 to 120 | – | – | – | activity against HIV-1 replication (in words) (HIV-1): inactive
4 | C=CCc1c(Cc2ccccc2)nc(SCC(C)C)[nH]c1=O [Compound 2h, 5-Allyl-6-benzyl-2-(isobutylthio)pyrimidin-4(3H)-one] | 134 to 136 | 1 | >100 | > 100 | –
5 | O=c1[nH]c([S+]([O-])C2CCCCC2)nc(Cc2ccccc2)c1CC1CO1 (stereo not shown) [Compound 7, 6-Benzyl-2-(cyclohexylsulfinyl)-5-((oxiran-2-yl)methyl)pyrimidin-4(3H)-one] | 190 to 192 | – | – | – | –
6 | C=CCc1c(Cc2ccccc2)nc(SCCOCOC)[nH]c1=O [Compound 2f, 5-Allyl-6-benzyl-2-(2-(methoxymethoxy)ethylthio)pyrimidin-4(3H)-one] | 188 to 190 | – | – | – | –
7 | C=CCc1c(Cc2ccccc2)nc(SCCCO)[nH]c1=O [Compound 11c, 2-(3-Hydroxypropylthio)-5-allyl-6-benzylpyrimidin-4(3H)-one] | 123 to 125 | 0.32 | >312 | > 100 | EC50 (HIV-1): 0.32 µM
8 | C=CCc1c(Cc2ccccc2)nc(SCC(=O)NC)[nH]c1=O [Compound 4, 2-(5-Allyl-4-benzyl-1,6-dihydro-6-oxopyrimidin-2-ylthio)-N-methylacetamide] | – | – | – | – | activity against HIV-1 replication (in words) (HIV-1): inactive
9 | C=CCc1c(Cc2ccccc2)n2c(nc1=O)SCC2OCC (stereo not shown) [Compound 10, 6-Allyl-5-benzyl-3-ethoxy-2,3-dihydrothiazolo[3,2-a]pyrimidin-7-one] | 162 to 164 | – | – | – | –
10 | CCOCn1c(Cc2ccccc2)c(C(C)C)c(=O)[nH]c1=O [MKC-442, 6-benzyl-1-(ethoxymethyl)-5-isopropylpyrimidine-2,4-dione, reference compound] | – | 0.005 | 28,000 | 141 | –
11 | C=CCc1c(Cc2ccccc2)nc(SCCOCOCCBr)[nH]c1=O [Compound 2g, 5-Allyl-6-benzyl-2-(2-((2-bromoethoxy)methoxy)ethylthio)pyrimidin-4(3H)-one] | 192 to 194 | – | – | – | –
12 | C=CCc1c(Cc2ccccc2)nc(SC2CCOC2=O)[nH]c1=O (stereo not shown) [Compound 2k, 5-Allyl-6-benzyl-2-(tetrahydro-2-oxofuran-3-ylthio)pyrimidin-4(3H)-one] | 153 to 155 | – | – | – | activity against HIV-1 replication (in words) (HIV-1): inactive
13 | Cc1cn([C@H]2C[C@H](N=[N+]=[N-])[C@@H](CO)O2)c(=O)[nH]c1=O [AZT, azidothymidine, reference compound] | – | 0.04 | 1,300 | 52 | –
14 | C=CCc1c(Cc2ccccc2)nc(SCC(OCC)OCC)[nH]c1=O [Compound 9, 5-Allyl 6-benzyl-2-(2,2-diethoxyethylthio)pyrimidin-4(3H)-one] | 156 to 158 | – | – | – | activity against HIV-1 replication (in words) (HIV-1): inactive
15 | C=CCSc1nc(Cc2ccccc2)c(CC=C)c(=O)[nH]1 [Compound 2e, 5-Allyl 6-benzyl-2-(allylthio)pyrimidin-4(3H)-one] | 114 to 116 | – | – | 25 | IC50 (HIV-1): 2.5 µM; EC50 (HIV-1): 2.5 µM
16 | C=CCc1c(Cc2ccccc2)nc(SC2CCCC2)[nH]c1=O [Compound 2j, 5-Allyl 6-benzyl-2-(cyclopentylthio)pyrimidin-4(3H)-one] | – | 2.6 | – | > 100 | EC50 (HIV-1): 2.6 µM
17 | C=CCc1c(Cc2ccccc2)nc(SCSC)[nH]c1=O [Compound 11a, 2-((Methylthio)methylthio)-5-allyl-6-benzylpyrimidin-4(3H)-one] | 218 to 220 | 3.16 | >31 | > 100 | –
18 | C=CCc1c(Cc2ccccc2)nc(SCCCCCC)[nH]c1=O [Compound 2d, 5-Allyl-6-benzyl-2-(hexylthio)pyrimidin-4(3H)-one] | 153 to 155 | – | – | 35 | IC50 (HIV-1): 7 µM
19 | C=CCc1c(Cc2ccccc2)nc(SC)[nH]c1=O [Compound 2a, 5-Allyl 6-(benzyl)-2-(methylthio)pyrimidin-4(3H)-one] | 214 to 216 | 26.8 | >3 | > 100 | –
20 | C=CCc1c(Cc2ccccc2)nc(SC2CCCCC2)[nH]c1=S [Compound 8, 5-Allyl-6-benzyl-2-(cyclohexylthio)pyrimidine-4(3H)-thione] | 143 to 145 | 3.9 | >25 | > 100 | –
21 | C=CCc1c(Cc2ccccc2)nc(SCCO)[nH]c1=O [Compound 2b, 2-(2-Hydroxyethylthio)-5-allyl-6-benzylpyrimidin-4(3H)-one] | 164 to 166 | – | – | – | –
22 | C=CCc1c(Cc2ccccc2)nc(SC2CCCCC2)[nH]c1=O [Compound 6, 5-Allyl 6-benzyl-2-(cyclohexylthio)pyrimidin-4(3H)-one] | 138 to 140 | – | – | – | –
23 | C=CCc1c(Cc2ccccc2)nc(SCC(=O)OC)[nH]c1=O [Compound 3a, 5-Allyl-6-benzyl-2-(methylacetatethio)pyrimidin-4(3H)-one] | 117 to 119 | 35 | >2 | > 100 | –
24 | C=CCc1c(Cc2ccccc2)nc(SCC(CC)CC)[nH]c1=O [Compound 2i, 5-Allyl-6-benzyl-2-(2-ethylbutylthio)pyrimidin-4(3H)-one] | 141 to 143 | – | – | – | –
